This is an account of results in patent US20120157494A1, “ISOINDOLYL COMPOUNDS” (priority 2010, published 2012).

The target in one data set is T1, hP2X7 (Homo sapiens, UniProt Q99572).
T1 construct: 1321N1 cells stably expressing the full length human P2X7 gene (1321N1-hP2X7); expressed in transfected cells
T1 sequence (Q99572 1-595): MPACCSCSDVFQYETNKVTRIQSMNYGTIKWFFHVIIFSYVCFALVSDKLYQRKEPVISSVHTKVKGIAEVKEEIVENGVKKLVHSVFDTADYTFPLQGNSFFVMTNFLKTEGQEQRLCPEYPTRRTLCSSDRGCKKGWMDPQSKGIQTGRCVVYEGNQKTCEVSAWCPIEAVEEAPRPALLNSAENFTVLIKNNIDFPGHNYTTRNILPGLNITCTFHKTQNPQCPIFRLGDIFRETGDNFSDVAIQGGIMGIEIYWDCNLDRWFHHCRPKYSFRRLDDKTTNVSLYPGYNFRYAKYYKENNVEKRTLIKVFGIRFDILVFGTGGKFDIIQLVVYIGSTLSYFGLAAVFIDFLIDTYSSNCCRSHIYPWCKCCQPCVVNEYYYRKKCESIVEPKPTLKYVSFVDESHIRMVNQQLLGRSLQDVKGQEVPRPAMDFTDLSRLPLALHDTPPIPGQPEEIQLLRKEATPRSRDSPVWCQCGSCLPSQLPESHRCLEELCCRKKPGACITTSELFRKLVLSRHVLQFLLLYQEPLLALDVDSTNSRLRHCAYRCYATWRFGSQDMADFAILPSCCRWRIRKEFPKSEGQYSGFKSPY
In words: Intracellular Calcium Flux (FLIPR) Assay. It counts as cell-based. Particulars: 1321N1 cells stably expressing human P2X7; agonist 100 μM BzATP; 20 min equilibration with antagonist; read-out: FLIPR pIC50 hP2X7-1321n1 (converted). Here is the method:
Stock solutions of compounds were prepared from powders as a 10 mM DMSO stock solution. These solutions were stored at RT during the two week period of these experiments to prevent freeze-thaw of the DMSO stocks. The DMSO stocks were added to the appropriate assay buffer at a concentration of 10 μM, and then diluted serially to the final concentrations that were tested. No observable precipitate was formed at any time during this process. The aqueous solutions of compounds as well as ATP (Sigma A7699) and BzATP (Sigma B6396) were prepared fresh for each day of experiment.
1321N1 cells stably expressing the full length human P2X7 gene (1321N1-hP2X7) and HEK293 cells stably expressing the full length rat P2X7 gene (HEK293-rP2X7) were obtained from the Roche Cell Culture Facility. 1321N1-hP2X7 cells were grown in Dulbecco's Modified Eagle's Medium (DMEM) high glucose supplemented with 10% FBS and 250 μg/mL G418. HEK293-rP2X7 cells were grown in DMEM/F-12 supplemented with 10% FBS, 1 mM CaCl2, 2 mM MgCl2, 2 mM L-Glutamine and 500 μg/ml G418. Cells were split such that they never became >70% confluent.
On the day prior to the experiment, 1321N1-hP2X7 or HEK293-rP2X7 cells were released into suspension with calcium-free PBS+Versene and washed by centrifugation with calcium-free PBS to remove the Versene. Cells were resuspended in growth medium at a density of 2.5×10^5 cells/mL and seeded into black walled, clear bottom 96 well plates (50,000 cells/well) approximately 18 hr prior to intracellular calcium flux experiments.
On the day of the experiment, plates were washed with FLIPR buffer (calcium- and magnesium-free Hank's Balanced Salt Solution (HBSS) supplemented with 10 mM Hepes, 2.5 mM probenecid and 2 mM calcium chloride) using a BIO-TEK 96 channel plate washer and incubated with […] fluo-3 dye at 37° C. for one hr. The dye was then removed by plate washing and the cells were allowed to equilibrate for 20 min at room temperature with antagonist or vehicle (FLIPR buffer). Agonist (100 μM BzATP final concentration for hP2X7; 5 μM BzATP final concentration or rP2X7) was added online with the FLIPR and fluorescence measurements made at 1 sec intervals for 60 sec followed by 3 sec intervals for a further 4 min (5 min total). A final addition of 5 μM ionomycin was made and the maximal BzATP-evoked fluorescence normalized to the maximal ionomycin-evoked fluorescence.

As to `CCOc1ccccc1CNC(=O)[C@@H]1CCCN(c2cccc3c2C(=O)N(Cc2ccncc2)C3=O)C1` [Compound I-9, (R)-1-(1,3-Dioxo-2-pyridin-4-ylmethyl-2,3-dihydro-1H-isoindol-4-yl)-piperidine-3-carboxylic acid 2-ethoxy-benzylamide], the melting point lay in the range of 194 to 195 °C. For the same compound, at hP2X7, the IC50 is 955 nM.

As to `COCC(C)N1Cc2c(NC(=O)Cc3ccc(F)c(C(F)(F)F)c3)cccc2C1=O` (stereo not drawn) [Compound I-19, 2-(4-Fluoro-3-trifluoromethyl-phenyl)-N-[2-(2-methoxy-1-methyl-ethyl)-1-oxo-2,3-dihydro-1H-isoindol-4-yl]-acetamide], the melting point fell in the range of 151 to 152 °C. Moreover, the IC50 on hP2X7 was 331 nM.

As for `O=C(NCc1cccs1)[C@@H]1CCCN(c2cccc3c2C(=O)N(Cc2ccncc2)C3=O)C1` [Compound I-8, (R)-1-(1,3-Dioxo-2-pyridin-4-ylmethyl-2,3-dihydro-1H-isoindol-4-yl)-piperidine-3-carboxylic acid (thiophen-2-ylmethyl)-amide], the melting point lay within 193 to 194 °C. Further, the IC50 on hP2X7 was 437 nM.
